Experimental data taken from the supplement of paper PMC10307832.

How the values were obtained:
Assay in all cases: relative viability (nuclei count vs DMSO), 5 days (fraction); higher = more cells survive
[1] = compound: Cc1ccc(C(=O)N(CCCN)[C@@H](c2nc3cc(Cl)ccc3c(=O)n2Cc2ccccc2)C(C)C)cc1 [Ispinesib] + O=C(CCCCCCC(=O)Nc1ccccc1)NO [Vorinostat] (partner 1 µM)
Procedure, shortened: (§1)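 For relative viability, nuclei counts in treated wells were divided by those in vehicle wells. Lung cancer cell lines had been pin-tool dosed in 1536-well plates the day after seeding and cultured for 5 days, then fixed and stained in one step (final 0.05% Triton X-100, 1% formaldehyde, 1 ug/ml Hoechst) and imaged at 4×. Doses were one drug alone or a fixed anchor-drug dose plus five library-drug doses (not always all listed) in √10 steps, and values are duplicate-plate medians.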

[2] = compound: Cc1ccc(C(=O)N(CCCN)[C@@H](c2nc3cc(Cl)ccc3c(=O)n2Cc2ccccc2)C(C)C)cc1 [Ispinesib] + N=C(N)NC(=N)NCCc1ccccc1 [Phenformin] (partner 250 µM)
Procedure, shortened: as §1

[3] = compound: Cc1ccc(C(=O)N(CCCN)[C@@H](c2nc3cc(Cl)ccc3c(=O)n2Cc2ccccc2)C(C)C)cc1 [Ispinesib] + COc1cc2c(Oc3ccc(NC(=O)C4(C(=O)Nc5ccc(F)cc5)CC4)cc3F)ccnc2cc1OCCCN1CCOCC1 [Foretinib] (partner 0.25 µM)
Procedure, shortened: as §1

[4] = compound: C[C@]1(O)C[C@@H](c2nc(-c3ccc4ccc(-c5ccccc5)nc4c3)c3c(N)nccn32)C1 [Linsitinib] + CCNC(=O)c1noc(-c2cc(C(C)C)c(O)cc2O)c1-c1ccc(CN2CCOCC2)cc1 [Luminespib] (partner 0.01 µM)
Procedure, shortened: as §1

Cell Line	relative viability ([1]; first compound 0.001 µM)	relative viability ([1]; first compound 0.003162 µM)	relative viability ([1]; first compound 0.01 µM)	relative viability ([1]; first compound 0.03162 µM)	relative viability ([1]; first compound 0.1 µM)	relative viability ([2]; first compound 0.001 µM)	relative viability ([2]; first compound 0.003162 µM)	relative viability ([2]; first compound 0.01 µM)	relative viability ([2]; first compound 0.03162 µM)	relative viability ([2]; first compound 0.1 µM)	relative viability ([3]; first compound 0.001 µM)	relative viability ([3]; first compound 0.003162 µM)	relative viability ([3]; first compound 0.01 µM)	relative viability ([3]; first compound 0.03162 µM)	relative viability ([3]; first compound 0.1 µM)	relative viability ([4]; first compound 0.01 µM)	relative viability ([4]; first compound 0.03162 µM)	relative viability ([4]; first compound 0.1 µM)	relative viability ([4]; first compound 1 µM)	relative viability ([4]; first compound 0.3162 µM)
NCI-H2009	0.859	0.732	0.746	0.72	0.213	0.519	0.512	0.451	0.312	0.186	1.28	1.33	1.32	1.09	0.431	1.01	1.01	1.06	1.06	–
LC-2-ad	0.718	0.697	0.765	0.321	0.19	0.646	0.638	0.611	0.285	0.207	0.892	0.863	1.09	0.63	0.361	1	1.07	0.971	0.877	0.873
NCI-H1437	0.967	0.837	0.922	0.878	0.219	0.326	0.335	0.371	0.251	0.189	1.3	1.39	1.39	1.27	0.748	1.1	1.12	1.22	1.19	1.1
NCI-H3122	1	1.09	1.07	0.855	0.119	0.384	0.408	0.856	0.197	0.108	0.977	1.01	1.08	1.07	0.207	0.0915	0.1	0.0744	0.0925	0.0902
NCI-H727	1.24	1.31	–	1.05	1.06	0.601	0.6	0.385	0.466	0.309	0.944	0.873	0.933	0.91	0.718	0.323	0.207	0.346	0.288	0.268
NCI-H1734	0.854	0.904	0.91	0.552	0.262	0.455	0.379	0.414	0.239	0.156	0.809	0.859	1.08	0.827	0.343	0.204	0.206	0.198	0.178	0.154
HCC-15	0.861	0.976	0.968	0.852	0.344	0.567	0.48	0.487	0.19	0.184	1.1	1.02	1.1	0.561	0.188	0.218	0.296	0.271	0.34	–
NCI-H2405	1.07	1.19	1.23	0.622	0.519	0.41	0.408	0.705	0.361	0.289	1.04	1.06	1.02	1.07	0.978	0.762	0.724	0.653	0.475	0.703
NCI-H1993	0.984	0.738	0.74	0.515	0.438	0.537	0.483	0.543	0.518	0.436	0.694	0.786	0.802	0.756	0.633	0.751	0.852	0.835	0.498	0.794
NCI-H1650	0.779	0.535	0.521	0.416	0.234	0.512	0.467	0.407	0.182	0.305	1.27	1.44	1.12	0.305	0.273	0.196	0.167	0.235	0.172	0.202
NCI-H460	1.37	1.03	1.1	0.237	0.107	0.557	0.579	0.559	0.0429	0.032	0.901	0.995	1.13	0.879	0.0487	0.044	0.0373	0.033	0.0347	0.0397
NCI-H1651	0.529	0.605	0.676	0.512	0.548	0.365	0.413	0.374	0.299	0.121	0.973	0.768	1.01	0.561	0.147	0.754	0.903	0.801	0.682	0.621
NCI-H1975	0.738	0.766	0.798	0.586	0.279	0.448	0.412	0.458	0.164	0.11	0.996	0.934	1.05	0.632	0.144	0.24	0.263	0.281	0.127	0.302
NCI-H2126	0.754	0.867	0.932	0.789	0.289	0.516	0.531	0.533	0.433	0.263	1.27	1.35	1.39	1.14	1.03	0.883	0.841	0.912	0.522	0.838
201T	1	1.01	1.02	0.908	0.28	0.462	0.533	0.559	0.427	0.24	1.26	1.24	1.08	0.962	0.214	1.05	1.13	1.02	1.1	1.18
NCI-H358	0.977	0.752	0.744	0.703	0.196	0.391	0.351	0.266	0.102	0.0986	0.694	0.695	0.702	0.28	0.123	0.365	0.367	0.299	0.194	0.333
